US10112918B2, “15-oxospiramilactone derivatives, preparation method and uses thereof” (Kunming Institute of Botany, The Chinese Academy of Sciences, priority 2013, dated 2018)
Read-outs that look alike come from different tables or passages of the source.

Assays:
Type in all cases: cell-based
[1] = test system: Wnt signaling pathway (Top-Flash reporter gene); test: Top-Flash Wnt reporter gene assay in HEK293T cells with Wnt3a conditioned medium; conditions: Homo sapiens, HEK-293T, 6 h, HEK293T, Wnt3a conditioned medium, 6 h
How it was run: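 HEK293T transfected with TOP-flash (5 ng/well) plus GFP plasmid for normalization, then treated 6 h with mouse Wnt3a conditioned medium from L cells, with or without compound. GFP-normalized luciferase minus DMSO-only background, scaled to Wnt-induced activity; IC50 at 0.5 relative residual activity from 4-parameter logistic fit.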

[2] = test system: HL-60 (human promyelocytic leukemia cells); test: MTT inhibition of tumor cell growth, HL-60; conditions: Homo sapiens, HL-60, 48 h
How it was run: (§1)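 Seed 5000-10000 cells/well (adherent lines 12 h ahead); add compound at 40 μM or, for hits near 50% inhibition, 5 concentrations; incubate 48 h at 37° C; add MTT 4 h, dissolve in 10% SDS overnight; read 595 nm; derive IC50 by Reed-Muench.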

[3] = test system: MCF-7 (human breast cancer cells); test: MTT inhibition of tumor cell growth, MCF-7; conditions: Homo sapiens, MCF7, 48 h
How it was run: as §1

[4] = test system: SMMC-7721 (human hepatoma cells); test: MTT inhibition of tumor cell growth, SMMC-7721; conditions: Homo sapiens, SMMC-7721, 48 h
How it was run: as §1

[5] = test system: A-549 (Human lung adenocarcinoma cells); test: MTT inhibition of tumor cell growth, A-549; conditions: Homo sapiens, A549, 48 h
How it was run: as §1

[6] = test system: SW-480 (human colon cancer cells); test: MTT inhibition of tumor cell growth, SW-480; conditions: Homo sapiens, SW480, 48 h
How it was run: as §1

[7] = Table 10, read-out: IC50 (μM), inhibitory activity on the Wnt signaling pathway
[8] = Table 4, derivatives obtained by reduction of the lactonic ring
[9] = Table 4, derivatives obtained by reduction of the lactonic ring, read-out: IC50 SW-480
[10] = Table 8, read-out: IC50 (μM), inhibitory activity on the Wnt signaling pathway
[11] = Table 6, 7-carbonyl derivatives, read-out: IC50 SW-480, 7-carbonyl derivatives
[12] = Table 2, derivatives having potential Michael reaction acceptor
[13] = Table 3, single Michael reaction acceptor, modified lactonic ring
[14] = Table 2, derivatives having potential Michael reaction acceptor, read-out: IC50 SW-480
[15] = Table 3, single Michael reaction acceptor, modified lactonic ring, read-out: IC50 SW-480
[16] = Table 9, read-out: IC50(μM), inhibitory activity on the Wnt signaling pathway

SMILES | IC50 [1, 7] [µM] | IC50 [2, 8] [µM] | IC50 [3, 8] [µM] | IC50 [4, 8] [µM] | IC50 [5, 8] [µM] | IC50 [6, 9] [µM] | IC50 [1, 10] [µM] | IC50 [2, 12] [µM] | IC50 [3, 12] [µM] | IC50 [4, 12] [µM] | IC50 [5, 12] [µM] | IC50 [6, 14] [µM] | IC50 [1, 16] [µM] | also measured
C=C1C(=O)C23CC[C@H]1CC2[C@]1(COCC#N)CCC[C@@](C)(COC(=O)c2cccs2)C1CC3=O (some centres unmarked) [Compound 55] | 12.1 ± 1.25 | 0.62 | 0.65 | 1.06 | 1.17 | 0.8 | – | – | – | – | – | – | – | –
C=C1C(=O)C23CC[C@H]1CC2[C@]1(COC(=O)c2cccs2)CCC[C@@](C)(COC(=O)c2cccs2)C1CC3=O (some centres unmarked) [Compound 64] | – | 0.61 | 0.67 | 0.57 | 0.7 | 0.59 | 7.83 ± 0.7 | – | – | – | – | – | – | IC50 [6, 11]: 0.71 µM
C=C1C(=O)[C@]23CC[C@H]1CC2[C@@]12CCC[C@@](C)(COC1)C2CC3=O (some centres unmarked) [Compound 28] | – | – | – | – | – | – | 9.12 ± 0.21 | 4.9 | 2.85 | 4.62 | 2.97 | 2.37 | – | IC50 [2, 13]: 4.9 µM; IC50 [3, 13]: 2.85 µM; IC50 [4, 13]: 4.62 µM; IC50 [5, 13]: 2.97 µM; IC50 [6, 15]: 2.37 µM; IC50 [6, 11]: 2.06 µM
C=C1C(=O)[C@]23CC[C@H]1CC2[C@]1(COC(=O)N2CCOCC2)CCC[C@@](C)(COS(C)(=O)=O)C1CC3=O (some centres unmarked) [Compound 59] | 43.8 ± 3.05 | 4.18 | 3.31 | 3.95 | 4.21 | 2.94 | – | – | – | – | – | – | – | –
C=C1C(=O)[C@]23CC[C@H]1CC2[C@@]12CCC[C@@](C)(COC1=O)C2[C@H](Br)C3=O (some centres unmarked) [Compound 13] | – | – | – | – | – | – | – | 3.86 | 1.51 | 0.83 | 0.73 | 1.21 | 16.5 ± 1.16 | –
C=C1C(=O)C23CC[C@H]1CC2[C@]1(COC(C)=O)CCC[C@@](C)(COC(C)=O)C1[C@H](COS(C)(=O)=O)C3=O (some centres unmarked) [Compound 49] | – | – | – | – | – | – | – | 6.5 | 12.8 | 14 | 11 | 15.5 | 58.2 ± 1.18 | –
C[C@]12CCC[C@@]3(C(=O)OC1)C1C[C@@H]4CCC1(C(=O)[C@H]4CN1CCOCC1)[C@H](O)CC23 (some centres unmarked) [Compound 75] | – | – | – | – | – | – | – | 3.78 | 4.12 | 5.97 | 3.64 | 8.01 | > 60 | –
C=C1C(=O)C23CC[C@H]1CC2[C@]1(CO)CCC[C@@](C)(CO)C1C[C@H]3O (some centres unmarked) [Compound 46] | 27.7 ± 2.8 | 4.28 | 8.07 | 4.48 | 4.28 | 4.42 | – | – | – | – | – | – | – | –
C=C1C(=O)[C@]23CC[C@H]1CC2[C@@]12CCC[C@@](C)(COC1)C2C[C@H]3O (some centres unmarked) [Compound 25] | – | – | – | – | – | – | 21.7 ± 0.63 | – | – | – | – | – | – | IC50 [2, 13]: 4.87 µM; IC50 [3, 13]: 4 µM; IC50 [4, 13]: 4.92 µM; IC50 [5, 13]: 3.25 µM; IC50 [6, 15]: 6.33 µM; IC50 ([6]; Table 6, 7-hydroxyl derivatives and controls, read-out: IC50 SW-480, 7-hydroxyl derivatives): 4.12 µM
C=C1C(=O)[C@]23CC[C@H]1CC2[C@@]12CCC[C@@](C)(COC1=O)C2[C@H](SC)C3=O (some centres unmarked) [Compound 12] | – | – | – | – | – | – | – | 4.69 | 4.83 | 2.41 | 3.14 | 3.71 | 19.8 ± 1.34 | –
